Test results as given in article PMC9090415, “Discovery of small molecule inhibitors of Plasmodium falciparum apicoplast DNA polymerase” (Journal of Enzyme Inhibition and Medicinal Chemistry, 2022).

Target: P. falciparum apicoplast DNA polymerase (Pf-apPOL) (Plasmodium falciparum, UniProt Q8ILY1)
Assay: Fluorescence-based high-throughput DNA polymerase assay (molecular beacon), primary screen and dose-response
Type: biochemical
Settings: for DNA Pol: 90 min, 10 µM
Procedure, shortened: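 Single-point screening used 10 µM compound with 20 nM polymerase, 20 nM hairpin substrate and 6 µM dNTPs for 90 min at 25 °C. Confirmatory titrations (2.5–80 µM) followed fluorescence at three times, and IC50 was derived from a fit including a cooperativity term n.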

[1] = 'DNA Pol' of the 186 hits list (primary screen value)
[2] = first dose-response set, concentration 80

Sequence of P. falciparum apicoplast DNA polymerase (Pf-apPOL) (Q8ILY1 entry or part of it): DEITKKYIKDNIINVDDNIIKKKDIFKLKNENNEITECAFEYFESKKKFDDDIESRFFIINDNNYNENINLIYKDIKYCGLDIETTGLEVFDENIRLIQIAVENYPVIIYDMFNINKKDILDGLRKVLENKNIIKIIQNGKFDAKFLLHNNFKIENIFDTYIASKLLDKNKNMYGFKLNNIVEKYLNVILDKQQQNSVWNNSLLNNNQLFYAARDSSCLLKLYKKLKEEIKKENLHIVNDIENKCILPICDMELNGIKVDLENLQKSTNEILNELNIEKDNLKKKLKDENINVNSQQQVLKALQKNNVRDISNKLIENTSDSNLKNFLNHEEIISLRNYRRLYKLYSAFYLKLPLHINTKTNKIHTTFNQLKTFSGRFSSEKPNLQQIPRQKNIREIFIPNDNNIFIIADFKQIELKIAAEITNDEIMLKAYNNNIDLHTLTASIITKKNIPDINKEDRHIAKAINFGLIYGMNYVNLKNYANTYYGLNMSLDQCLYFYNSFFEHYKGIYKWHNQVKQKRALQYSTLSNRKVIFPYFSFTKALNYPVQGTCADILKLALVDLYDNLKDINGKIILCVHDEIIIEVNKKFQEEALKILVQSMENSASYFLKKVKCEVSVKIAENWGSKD

## Cc1nc(/N=N/c2ccc(C(=O)[O-])cc2)c(COP(=O)([O-])[O-])c(C=O)c1O.[Na+].[Na+].[Na+] [KU0261395]
[1]
  DNA Pol: 94
DNA Pol (primary screen value)
  DNA Pol: 94
DRC-1, concentration 2.5
  % inhibition Apo pol 10': 68.7077%
  % inhibition Apol 90': 38.1069%
  % inhibition apPOL 180': 26.3863%
DRC-1, concentration 5
  % inhibition Apo pol 10': 75.1682%
  % inhibition Apol 90': 43.9893%
  % inhibition apPOL 180': 31.3621%
DRC-1, concentration 10
  % inhibition Apo pol 10': 82.6072%
  % inhibition Apol 90': 54.4878%
  % inhibition apPOL 180': 42.4654%
DRC-1, concentration 20
  % inhibition Apo pol 10': 83.4638%
  % inhibition Apol 90': 58.7781%
  % inhibition apPOL 180': 47.0791%
DRC-1, concentration 40
  % inhibition Apo pol 10': 87.7541%
  % inhibition Apol 90': 68.7531%
  % inhibition apPOL 180': 59.2191%
DRC-1, concentration 80
  % inhibition Apo pol 10': 88.013%
  % inhibition Apol 90': 75.4152%
  % inhibition apPOL 180': 68.3493%
DRC-2, concentration 2.5
  % inhibition Apo pol 5': 42%
  % inhibition Apol 40': 33%
  % inhibition ApPOL 90': 29%
  % inhibition apPOL 180': 20%
DRC-2, concentration 5
  % inhibition Apo pol 5': 44%
  % inhibition Apol 40': 40%
  % inhibition ApPOL 90': 36%
  % inhibition apPOL 180': 26%
DRC-2, concentration 10
  % inhibition Apo pol 5': 53%
  % inhibition Apol 40': 51%
  % inhibition ApPOL 90': 48%
  % inhibition apPOL 180': 39%
DRC-2, concentration 20
  % inhibition Apo pol 5': 53%
  % inhibition Apol 40': 56%
  % inhibition ApPOL 90': 53%
  % inhibition apPOL 180': 48%
DRC-2, concentration 40
  % inhibition Apo pol 5': 54%
  % inhibition Apol 40': 61%
  % inhibition ApPOL 90': 60%
  % inhibition apPOL 180': 56%
DRC-2, concentration 80
  % inhibition Apo pol 5': 55%
  % inhibition Apol 40': 66%
  % inhibition ApPOL 90': 66%
  % inhibition apPOL 180': 66%

## COc1ccc(-c2cc3nc4c(c(=O)n3[nH]2)CCN(C(=O)CCc2ccccc2)C4)cc1 [Molecule 17, COc1ccc(cc1)c1[nH]n2c(c1)nc1c(c2=O)CCN(C1)C(=O)CCc1ccccc1]
[1]
  DNA Pol: 52
DNA Pol (primary screen value)
  DNA Pol: 52
DRC-1, concentration 2.5
  % inhibition Apo pol 10': 3%
  % inhibition Apol 90': -3.33%
  % inhibition apPOL 180': -7%
DRC-1, concentration 5
  % inhibition Apo pol 10': 30%
  % inhibition Apol 90': 18%
  % inhibition apPOL 180': 7.5%
DRC-1, concentration 10
  % inhibition Apo pol 10': 64%
  % inhibition Apol 90': 49%
  % inhibition apPOL 180': 34%
DRC-1, concentration 20
  % inhibition Apo pol 10': 81%
  % inhibition Apol 90': 69%
  % inhibition apPOL 180': 55%
DRC-1, concentration 40
  % inhibition Apo pol 10': 82%
  % inhibition Apol 90': 72%
  % inhibition apPOL 180': 58%
DRC-1, concentration 80
  % inhibition Apo pol 10': 78%
  % inhibition Apol 90': 78%
  % inhibition apPOL 180': 70%
DRC-2, concentration 2.5
  % inhibition Apo pol 5': -5.33%
  % inhibition Apol 40': -5.29%
  % inhibition ApPOL 90': -4.53%
  % inhibition apPOL 180': -5%
DRC-2, concentration 5
  % inhibition Apo pol 5': 12%
  % inhibition Apol 40': 14%
  % inhibition ApPOL 90': 13%
  % inhibition apPOL 180': 6%
DRC-2, concentration 10
  % inhibition Apo pol 5': 31%
  % inhibition Apol 40': 35%
  % inhibition ApPOL 90': 33%
  % inhibition apPOL 180': 24%
DRC-2, concentration 20
  % inhibition Apo pol 5': 43%
  % inhibition Apol 40': 54%
  % inhibition ApPOL 90': 53%
  % inhibition apPOL 180': 44%
DRC-2, concentration 40
  % inhibition Apo pol 5': 44%
  % inhibition Apol 40': 57%
  % inhibition ApPOL 90': 57%
  % inhibition apPOL 180': 50%
DRC-2, concentration 80
  % inhibition Apo pol 5': 38%
  % inhibition Apol 40': 58%
  % inhibition ApPOL 90': 61%
  % inhibition apPOL 180': 58%
[2]
  % inhibition Apo pol 10': 78%
  % inhibition Apol 90': 78%
First dose-response set, concentration 40
  % inhibition apPOL 180': 58%
